Source: ChEMBL document CHEMBL1201862, “PubChem BioAssay data set” (2004)
Activity calls are given as the source filed them.

Tests used:
[1] = biological target: Potassium voltage-gated channel subfamily KQT member 2 (Rattus norvegicus, UniProt O88943, W236L); experiment: KCNQ2 channel potentiators, dose response, mechanism study for KCNQ2 potentiator project, cell-based, automated electrophysiology (AID 2603); type: functional
[2] = biological target: Glyceraldehyde-3-phosphate dehydrogenase (Homo sapiens, UniProt P04406)
Glyceraldehyde-3-phosphate dehydrogenase, sequence (P04406 whole entry): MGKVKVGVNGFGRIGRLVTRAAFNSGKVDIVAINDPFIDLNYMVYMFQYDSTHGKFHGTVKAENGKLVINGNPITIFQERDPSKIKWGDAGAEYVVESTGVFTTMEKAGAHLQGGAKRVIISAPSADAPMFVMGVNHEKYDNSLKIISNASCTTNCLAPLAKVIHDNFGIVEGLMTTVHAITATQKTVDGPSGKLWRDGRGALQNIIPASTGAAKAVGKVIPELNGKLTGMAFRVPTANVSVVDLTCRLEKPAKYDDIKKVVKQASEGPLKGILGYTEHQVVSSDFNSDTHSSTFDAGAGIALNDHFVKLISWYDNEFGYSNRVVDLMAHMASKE

[3] = biological target: Genome polyprotein (dengue virus type 2, UniProt P29990); experiment: Dengue-2 NS5 methyltransferase inhibitors, primary screen, biochemical, confirmation dose response (AID 588689); type: functional
Genome polyprotein, sequence (P29990 2492-3391 limits assumed): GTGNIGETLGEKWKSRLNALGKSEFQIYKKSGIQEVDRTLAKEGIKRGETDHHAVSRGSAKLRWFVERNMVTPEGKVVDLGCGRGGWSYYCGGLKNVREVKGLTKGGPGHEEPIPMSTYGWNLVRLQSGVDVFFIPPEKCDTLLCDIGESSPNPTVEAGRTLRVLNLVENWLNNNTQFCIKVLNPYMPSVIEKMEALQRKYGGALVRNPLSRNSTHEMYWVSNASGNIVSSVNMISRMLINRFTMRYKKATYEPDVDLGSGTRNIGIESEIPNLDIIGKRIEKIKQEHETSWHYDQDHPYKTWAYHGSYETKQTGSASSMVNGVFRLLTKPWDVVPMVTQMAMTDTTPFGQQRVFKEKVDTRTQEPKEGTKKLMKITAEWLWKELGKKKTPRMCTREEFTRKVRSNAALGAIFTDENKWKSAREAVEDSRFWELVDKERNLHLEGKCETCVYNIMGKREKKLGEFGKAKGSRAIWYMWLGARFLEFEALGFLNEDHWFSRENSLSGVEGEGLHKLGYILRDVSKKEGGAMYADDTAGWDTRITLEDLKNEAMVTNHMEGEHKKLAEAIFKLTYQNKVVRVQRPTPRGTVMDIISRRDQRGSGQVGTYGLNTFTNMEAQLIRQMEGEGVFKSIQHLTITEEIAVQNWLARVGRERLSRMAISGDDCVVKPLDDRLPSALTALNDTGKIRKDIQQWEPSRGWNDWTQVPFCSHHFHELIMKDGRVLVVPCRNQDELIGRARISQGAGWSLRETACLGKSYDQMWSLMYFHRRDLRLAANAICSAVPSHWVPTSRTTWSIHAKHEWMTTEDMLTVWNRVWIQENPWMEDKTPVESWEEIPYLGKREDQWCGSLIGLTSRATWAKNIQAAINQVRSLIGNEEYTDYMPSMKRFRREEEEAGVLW

[4] = biological target: T1, Protein RecA (Mycobacterium tuberculosis, UniProt P9WHJ3); experiment: Fluorescence Cell-Free Homogeneous Dose Retest to Identify Inhibitors of RecA-Intein Splicing Activity. [Related pubchem assays (depositor defined):AID2097, AID2223, AID489010, AID492950]; type: functional
T1 sequence (P9WHJ3 whole entry): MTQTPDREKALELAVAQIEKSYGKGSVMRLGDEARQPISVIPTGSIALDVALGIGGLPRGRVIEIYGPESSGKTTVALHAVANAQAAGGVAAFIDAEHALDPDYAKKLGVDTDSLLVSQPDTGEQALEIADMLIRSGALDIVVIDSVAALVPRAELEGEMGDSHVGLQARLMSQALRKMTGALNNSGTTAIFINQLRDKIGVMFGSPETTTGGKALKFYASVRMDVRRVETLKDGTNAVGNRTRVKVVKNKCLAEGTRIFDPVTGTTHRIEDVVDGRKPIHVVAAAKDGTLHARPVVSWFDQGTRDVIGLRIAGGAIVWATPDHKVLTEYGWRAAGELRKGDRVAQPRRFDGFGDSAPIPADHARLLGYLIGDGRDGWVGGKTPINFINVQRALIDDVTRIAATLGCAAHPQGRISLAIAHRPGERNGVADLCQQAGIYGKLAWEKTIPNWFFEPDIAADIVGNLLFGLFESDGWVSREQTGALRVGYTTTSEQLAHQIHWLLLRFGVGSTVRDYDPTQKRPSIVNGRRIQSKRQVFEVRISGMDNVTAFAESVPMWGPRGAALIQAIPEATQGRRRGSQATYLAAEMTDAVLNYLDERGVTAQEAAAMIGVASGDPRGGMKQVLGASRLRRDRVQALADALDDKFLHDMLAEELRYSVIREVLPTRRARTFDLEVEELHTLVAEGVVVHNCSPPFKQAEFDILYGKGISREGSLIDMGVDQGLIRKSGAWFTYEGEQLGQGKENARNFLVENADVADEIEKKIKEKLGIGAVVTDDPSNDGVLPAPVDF

[5] = biological target: T2, Replicative DNA helicase DnaB (Mycobacterium tuberculosis, UniProt P9WMR3); experiment: DnaB intein splicing inhibitors, dose response, biochemical, cell-free fluorescence (AID 449749); type: functional
T2 sequence (P9WMR3 whole entry): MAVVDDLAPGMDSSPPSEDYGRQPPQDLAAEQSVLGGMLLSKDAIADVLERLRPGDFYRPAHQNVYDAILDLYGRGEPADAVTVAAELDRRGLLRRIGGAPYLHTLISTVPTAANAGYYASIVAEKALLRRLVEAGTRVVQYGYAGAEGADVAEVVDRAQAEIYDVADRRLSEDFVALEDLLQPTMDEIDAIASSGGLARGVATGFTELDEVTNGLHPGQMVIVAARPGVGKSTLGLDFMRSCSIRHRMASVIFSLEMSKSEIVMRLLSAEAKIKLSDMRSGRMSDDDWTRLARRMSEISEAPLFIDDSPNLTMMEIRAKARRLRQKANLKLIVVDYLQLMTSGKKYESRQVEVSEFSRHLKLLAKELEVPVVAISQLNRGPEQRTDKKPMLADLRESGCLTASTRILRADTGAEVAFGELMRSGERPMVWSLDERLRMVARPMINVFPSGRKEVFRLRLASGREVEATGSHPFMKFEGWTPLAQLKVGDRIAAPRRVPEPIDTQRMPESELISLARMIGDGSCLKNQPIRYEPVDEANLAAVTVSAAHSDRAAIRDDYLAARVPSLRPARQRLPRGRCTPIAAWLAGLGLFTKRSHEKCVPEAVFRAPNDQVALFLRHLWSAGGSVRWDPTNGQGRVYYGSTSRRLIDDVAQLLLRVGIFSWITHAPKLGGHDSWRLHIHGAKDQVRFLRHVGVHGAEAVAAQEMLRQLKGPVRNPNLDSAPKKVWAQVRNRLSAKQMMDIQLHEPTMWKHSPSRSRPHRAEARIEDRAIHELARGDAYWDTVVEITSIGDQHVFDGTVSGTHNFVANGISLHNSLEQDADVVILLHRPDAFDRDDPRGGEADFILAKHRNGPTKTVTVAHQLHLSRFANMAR

[6] = biological target: Peroxisome proliferator-activated receptor gamma/Nuclear receptor coactivator 3 (Homo sapiens, UniProt P37231); type: functional;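 note: agonist potency for raising coactivator recruitment to the receptor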
[7] = biological target: Peroxisome proliferator-activated receptor gamma/Nuclear receptor coactivator 2 (Homo sapiens, UniProt P37231); type: functional;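 note: agonist potency for raising coactivator recruitment to the receptor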
[8] = biological target: Peroxisome proliferator-activated receptor gamma/Nuclear receptor coactivator 1 (Homo sapiens, UniProt P37231); type: functional;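 note: agonist potency as compounds enhance coactivator SRC-1 recruitment to PPARgamma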
Peroxisome proliferator-activated receptor gamma/Nuclear receptor coactivator 1, sequence (P37231 whole entry): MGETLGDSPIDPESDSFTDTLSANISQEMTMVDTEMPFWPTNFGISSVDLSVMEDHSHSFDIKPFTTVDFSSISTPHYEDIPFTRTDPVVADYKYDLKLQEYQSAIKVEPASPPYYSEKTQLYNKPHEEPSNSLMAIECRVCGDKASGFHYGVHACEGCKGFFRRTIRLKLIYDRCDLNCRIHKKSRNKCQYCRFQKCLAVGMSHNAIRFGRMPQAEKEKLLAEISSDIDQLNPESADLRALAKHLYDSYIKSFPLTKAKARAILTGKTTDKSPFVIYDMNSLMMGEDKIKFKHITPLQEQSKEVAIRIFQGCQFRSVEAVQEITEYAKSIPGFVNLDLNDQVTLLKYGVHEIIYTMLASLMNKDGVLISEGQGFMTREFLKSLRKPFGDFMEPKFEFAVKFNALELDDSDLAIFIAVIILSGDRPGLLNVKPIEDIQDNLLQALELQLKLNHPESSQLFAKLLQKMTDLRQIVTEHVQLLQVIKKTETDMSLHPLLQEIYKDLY
Peroxisome proliferator-activated receptor gamma/Nuclear receptor coactivator 1, sequence (Q15788 whole entry, further chain): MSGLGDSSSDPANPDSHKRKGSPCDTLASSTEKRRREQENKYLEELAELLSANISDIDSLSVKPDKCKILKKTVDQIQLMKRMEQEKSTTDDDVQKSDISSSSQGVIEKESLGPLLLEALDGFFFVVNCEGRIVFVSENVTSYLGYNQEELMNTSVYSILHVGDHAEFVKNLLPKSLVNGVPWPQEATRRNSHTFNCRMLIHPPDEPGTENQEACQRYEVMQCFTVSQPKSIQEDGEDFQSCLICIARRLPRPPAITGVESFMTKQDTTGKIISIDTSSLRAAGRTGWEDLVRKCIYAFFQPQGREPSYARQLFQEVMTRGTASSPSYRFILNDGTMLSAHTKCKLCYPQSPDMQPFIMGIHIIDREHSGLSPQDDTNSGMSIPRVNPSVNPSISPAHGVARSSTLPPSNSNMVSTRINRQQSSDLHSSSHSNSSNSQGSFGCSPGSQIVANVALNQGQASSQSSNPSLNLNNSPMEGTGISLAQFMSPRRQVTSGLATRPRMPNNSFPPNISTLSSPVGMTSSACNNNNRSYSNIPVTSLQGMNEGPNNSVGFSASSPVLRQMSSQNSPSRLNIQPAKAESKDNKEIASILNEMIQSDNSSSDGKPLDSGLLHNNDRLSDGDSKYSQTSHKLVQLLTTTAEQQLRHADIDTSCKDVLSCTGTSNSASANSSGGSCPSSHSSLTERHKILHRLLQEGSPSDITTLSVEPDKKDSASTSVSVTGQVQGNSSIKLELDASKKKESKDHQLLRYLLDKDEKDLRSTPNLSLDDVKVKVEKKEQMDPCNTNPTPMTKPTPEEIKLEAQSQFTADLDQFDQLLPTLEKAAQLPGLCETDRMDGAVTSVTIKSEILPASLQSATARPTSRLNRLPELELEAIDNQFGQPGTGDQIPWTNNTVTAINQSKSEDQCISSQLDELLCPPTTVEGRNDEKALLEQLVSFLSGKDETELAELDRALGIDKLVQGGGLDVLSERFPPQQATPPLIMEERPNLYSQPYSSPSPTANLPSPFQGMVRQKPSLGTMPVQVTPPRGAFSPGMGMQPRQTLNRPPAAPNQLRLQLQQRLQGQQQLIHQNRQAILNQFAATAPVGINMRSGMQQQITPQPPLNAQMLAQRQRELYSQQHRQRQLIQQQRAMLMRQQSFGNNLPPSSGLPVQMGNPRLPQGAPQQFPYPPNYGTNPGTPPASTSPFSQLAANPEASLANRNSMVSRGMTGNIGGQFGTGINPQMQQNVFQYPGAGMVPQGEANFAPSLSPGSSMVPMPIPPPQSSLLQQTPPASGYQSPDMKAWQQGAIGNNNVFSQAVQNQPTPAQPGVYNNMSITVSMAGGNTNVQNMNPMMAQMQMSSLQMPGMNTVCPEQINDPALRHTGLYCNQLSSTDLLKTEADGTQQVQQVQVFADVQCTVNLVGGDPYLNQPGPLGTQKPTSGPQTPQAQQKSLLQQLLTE

Potassium voltage-gated channel subfamily KQT member 2, sequence (O88943 whole entry W236L): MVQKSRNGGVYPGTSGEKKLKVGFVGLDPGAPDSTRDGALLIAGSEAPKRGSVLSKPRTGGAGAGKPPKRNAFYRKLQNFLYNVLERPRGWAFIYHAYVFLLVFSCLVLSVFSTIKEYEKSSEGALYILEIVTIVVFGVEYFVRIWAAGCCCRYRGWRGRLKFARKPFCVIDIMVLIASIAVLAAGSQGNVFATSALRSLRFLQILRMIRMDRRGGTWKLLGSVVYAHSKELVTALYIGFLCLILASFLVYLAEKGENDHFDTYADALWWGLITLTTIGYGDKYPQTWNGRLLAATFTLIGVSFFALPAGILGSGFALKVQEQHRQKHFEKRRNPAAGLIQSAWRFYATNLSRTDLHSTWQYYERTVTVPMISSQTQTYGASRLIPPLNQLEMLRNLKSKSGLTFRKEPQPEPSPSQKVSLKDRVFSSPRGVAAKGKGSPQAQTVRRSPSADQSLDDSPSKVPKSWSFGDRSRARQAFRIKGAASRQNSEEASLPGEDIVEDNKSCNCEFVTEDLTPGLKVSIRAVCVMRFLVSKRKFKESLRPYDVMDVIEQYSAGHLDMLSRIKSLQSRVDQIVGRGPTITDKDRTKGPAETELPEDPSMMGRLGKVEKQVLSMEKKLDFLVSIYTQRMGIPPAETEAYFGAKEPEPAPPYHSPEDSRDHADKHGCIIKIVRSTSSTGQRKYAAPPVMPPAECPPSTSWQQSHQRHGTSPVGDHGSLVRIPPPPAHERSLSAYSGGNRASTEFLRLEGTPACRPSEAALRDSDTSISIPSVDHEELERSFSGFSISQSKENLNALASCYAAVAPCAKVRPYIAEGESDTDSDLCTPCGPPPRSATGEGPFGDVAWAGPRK

## O=C(Nc1cccc(OC(F)(F)F)c1)c1ccc(Br)o1
[1]
  EC50: 13.8 µM (active)

## COc1cccc(N2C(=O)C(Cl)=C(N(C)C)C2=O)c1
[2]
  IC50: > 50 µM (inconclusive)

## Cc1oc2cc([N+](=O)[O-])c(O)c([N+](=O)[O-])c2c1C(=O)c1ccc(Cl)cc1
[3]
  IC50: 61.9 µM (active)
[4]
  EC50: 10.4 µM (active)
[5]
  AC50: 4.12 µM (active)
[1]
  EC50: 555 µM (active)

## O=C(CCSCc1ccccc1Cl)NCc1cccs1
[6]
  EC50: > 79.4 µM (not active)
[7]
  EC50: > 79.4 µM (not active)
[8]
  EC50: > 79.4 µM (not active)
